This is an account of results in PubChem BioAssay (NCI).

Structures are written as SMILES.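 Each compound was tested at five concentrations against cells in 96-well plates for 48 hours. GI50 marks 50% less growth. At the TGI there is no net growth.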 Where only a bound is given, the exact number is not on record here.

Among the test systems are MALME-3M melanoma; OVCAR-3 ovarian; U251 CNS; ACHN renal; M14 melanoma; SK-MEL-5 melanoma; UACC-62 melanoma; OVCAR-5 ovarian; SF-295 CNS; EKVX NSCLC; OVCAR-8 ovarian; SNB-75 CNS; PC-3 prostate; LOX IMVI melanoma; TK-10 renal; A498 renal; NCI-H23 lung.
Experiment in all cases: inhibition of tumour cell growth, NCI panel, 48 h

Consider `Cc1ccc(C2N=C(N)NC3=C2CCOc2c3ccc3ccccc23)cc1` (stereo not given), for which the GI50 was 4.7 µM with MALME-3M melanoma, 16.6 µM with ACHN renal and 9.98 µM in the experiment with LOX IMVI melanoma. Also, the TGI in the experiment with MALME-3M melanoma is above 40.6 µM; in the experiment on OVCAR-3 ovarian, 21 µM; with U251 CNS it was above 66.9 µM; with ACHN renal it was above 73.7 µM; in the experiment on M14 melanoma, above 55.9 µM; in the experiment with SK-MEL-5 melanoma, 30.9 µM. Also, the TGI in the experiment on UACC-62 melanoma was 57.5 µM; in the experiment on OVCAR-5 ovarian, above 77.1 µM; in the experiment with SF-295 CNS it was 62.2 µM; in the experiment on EKVX NSCLC, above 55.1 µM; in the experiment with OVCAR-8 ovarian, above 70.5 µM; in the experiment with SNB-75 CNS, above 78.6 µM. Further, the TGI in the experiment on PC-3 prostate is above 75 µM; with LOX IMVI melanoma, 38.9 µM; in the experiment on TK-10 renal it was above 80.3 µM; in the experiment with A498 renal it was 41 µM; in the experiment with NCI-H23 lung it was above 79.5 µM.

Take `CCC/C(Cl)=N\OC(=O)Nc1cccc(C(F)(F)F)c1`: the TGI stood at 26.4 µM in the experiment on MALME-3M melanoma; 40.2 µM with OVCAR-3 ovarian; 34.4 µM in the experiment with U251 CNS; 29.8 µM in the experiment on ACHN renal; 32.7 µM in the experiment on M14 melanoma; 28.9 µM with SK-MEL-5 melanoma. For the same compound, the TGI worked out at 55.3 µM with UACC-62 melanoma; 46.1 µM with OVCAR-5 ovarian; 19.5 µM in the experiment on SF-295 CNS; 31.4 µM with EKVX NSCLC; 32.3 µM in the experiment on OVCAR-8 ovarian; 24.3 µM in the experiment with SNB-75 CNS. The TGI with PC-3 prostate came out at 31.6 µM; in the experiment with LOX IMVI melanoma, 19.7 µM; with TK-10 renal it was 28.8 µM; in the experiment on A498 renal, 32 µM; with NCI-H23 lung, 41.1 µM.

In the case of `COc1ccc(/C=C/C(=N/NC(=O)N/N=C(/C=C/c2ccc(OC)cc2)C(C)(C)CN2CCCCC2)C(C)(C)CN2CCCCC2)cc1`, the TGI with MALME-3M melanoma stood at 3.42 µM; with OVCAR-3 ovarian, 3.81 µM; in the experiment with U251 CNS it was 3.31 µM; in the experiment on ACHN renal, 3.19 µM; with M14 melanoma, 3.12 µM; in the experiment on SK-MEL-5 melanoma it was 3.01 µM. In addition, the TGI in the experiment on OVCAR-5 ovarian is 8.16 µM; in the experiment with SF-295 CNS, 3.45 µM; in the experiment with EKVX NSCLC it was above 10 µM; in the experiment with OVCAR-8 ovarian, 3.4 µM; in the experiment with SNB-75 CNS, 2.89 µM; with PC-3 prostate, 6.62 µM. Besides, the TGI is 2.82 µM with LOX IMVI melanoma, 3.67 µM in the experiment with TK-10 renal, 3.73 µM with A498 renal and above 10 µM with NCI-H23 lung.

`CSc1c(C(=O)Nc2ccc(C)cc2)c(N)n(N)c(=O)c1C#N`: the TGI in the experiment with MALME-3M melanoma, with OVCAR-3 ovarian, with U251 CNS, in the experiment on M14 melanoma, in the experiment with SK-MEL-5 melanoma and with UACC-62 melanoma was above 100 µM throughout. Besides, the TGI with OVCAR-5 ovarian, with EKVX NSCLC, in the experiment with OVCAR-8 ovarian, with SNB-75 CNS, in the experiment with PC-3 prostate and with LOX IMVI melanoma was above 100 µM throughout. The TGI in the experiment on TK-10 renal, in the experiment on A498 renal and with NCI-H23 lung was above 100 µM each time.

As for `COC(=O)C(Cc1ccccc1)NP(=O)(O)OCC1OC(n2cc(I)c(=O)[nH]c2=O)CC1O` (stereo not given), the TGI with MALME-3M melanoma, in the experiment with OVCAR-3 ovarian, in the experiment on U251 CNS, in the experiment on ACHN renal, in the experiment on M14 melanoma and in the experiment with SK-MEL-5 melanoma was above 100 µM each time. Moreover, the TGI with UACC-62 melanoma, in the experiment with SF-295 CNS, in the experiment with EKVX NSCLC, with OVCAR-8 ovarian, in the experiment on SNB-75 CNS and with PC-3 prostate was above 100 µM in each case. The TGI with LOX IMVI melanoma, in the experiment with TK-10 renal, in the experiment on A498 renal and in the experiment with NCI-H23 lung was above 100 µM each time.

For the compound `CN1C(=O)C(C(N)=O)C2CC1(C)Oc1ccccc12` (stereo not given), the TGI in the experiment with MALME-3M melanoma, in the experiment on OVCAR-3 ovarian, with U251 CNS, in the experiment with ACHN renal, in the experiment with M14 melanoma and in the experiment with SK-MEL-5 melanoma was above 100 µM in each case. Also, the TGI in the experiment on UACC-62 melanoma, in the experiment with OVCAR-5 ovarian, in the experiment with EKVX NSCLC, with OVCAR-8 ovarian, in the experiment on SNB-75 CNS and with PC-3 prostate was above 100 µM in each case. Also, the TGI with LOX IMVI melanoma, with A498 renal and in the experiment on NCI-H23 lung was above 100 µM each time.

As to `S=C(N/N=C/c1ccccn1)Nc1ccc(Cl)cc1`, the TGI is above 29 µM in the experiment on MALME-3M melanoma; above 100 µM in the experiment with OVCAR-3 ovarian; 8.3 µM in the experiment on U251 CNS; 1.66 µM with ACHN renal; 15.5 µM in the experiment on SK-MEL-5 melanoma; 1.51 µM in the experiment on UACC-62 melanoma. Moreover, the TGI was above 100 µM in the experiment with OVCAR-5 ovarian; above 91.7 µM in the experiment with SF-295 CNS; above 100 µM with EKVX NSCLC; above 42.8 µM in the experiment on OVCAR-8 ovarian; 8.74 µM in the experiment with SNB-75 CNS; above 100 µM in the experiment on PC-3 prostate. Further, the TGI with LOX IMVI melanoma is above 35.3 µM; with TK-10 renal, above 96 µM; in the experiment on A498 renal, 59.9 µM; in the experiment with NCI-H23 lung, above 100 µM.
